Source: patent US20110064680A1, “NATURALLY DERIVED WATERPROOFING AGENTS FOR AQUEOUS-BASED PERSONAL CARE PRODUCTS” (Pinova, Inc., priority 2009, published 2011)

Test: Solubility of solid sunscreen actives in the hydrogenated wood resins
Format: physicochemical
Conditions: solvent: hydrogenated wood resins
Text: During the making of the sunscreens, it was observed that the systems containing the hydrogenated wood resins more easily solubilzed the solid sunscreens (Oxybenzone and Avobenzone). […]

| Structure (SMILES) | solubility of these actives in the hydrogenated wood resins [%] |
| --- | --- |
| COc1ccc(C(=O)CC(=O)c2ccc(C(C)(C)C)cc2)cc1 [Avobenzone] | 13 |
| COc1ccc(C(=O)c2ccccc2)c(O)c1 [Oxybenzone] | 24 |
